Laboratory results reported in ChEMBL document CHEMBL4396955, “Novel thiazolidines: Synthesis, antiproliferative properties and 2D-QSAR studies” (Bioorg Med Chem, 2019).

Tests used:
HCT-116 = assay: Antiproliferative activity against human HCT116 cells assessed as reduction in cell growth incubated for 72 hrs by MTT assay; type: functional, cell-based; conditions: HCT-116, 72 h
TERT-RPE1 = assay: Cytotoxicity against human RPE1 cells assessed as reduction in cell growth incubated for 72 hrs by MTT assay; type: cell-based; conditions: RPE-1, 72 h
MCF7 [1] = assay: Antiproliferative activity against human MCF7 cells assessed as reduction in cell growth incubated for 72 hrs by MTT assay; type: functional, cell-based; conditions: MCF7, 72 h
MCF7 [2] = assay: Antiproliferative activity against human MCF7 cells assessed as reduction in cell growth incubated for 48 hrs by MTT assay; type: functional, cell-based; conditions: MCF7, 48 h
[3] = molecular target: T1, Peroxisome proliferator-activated receptor gamma (Homo sapiens, UniProt P37231); assay: Antagonist activity at human PPARgamma LBD expressed in yeast AH109 cells assessed as reduction in rosiglitazone-stimulated PPARgamma/CBP interaction by measuring alpha galactosidase activity using PNP-alpha-Gal as substrate by alpha-galactosidase based yeast-two hybrid assay; type: cell-based
T1 sequence (P37231 whole entry): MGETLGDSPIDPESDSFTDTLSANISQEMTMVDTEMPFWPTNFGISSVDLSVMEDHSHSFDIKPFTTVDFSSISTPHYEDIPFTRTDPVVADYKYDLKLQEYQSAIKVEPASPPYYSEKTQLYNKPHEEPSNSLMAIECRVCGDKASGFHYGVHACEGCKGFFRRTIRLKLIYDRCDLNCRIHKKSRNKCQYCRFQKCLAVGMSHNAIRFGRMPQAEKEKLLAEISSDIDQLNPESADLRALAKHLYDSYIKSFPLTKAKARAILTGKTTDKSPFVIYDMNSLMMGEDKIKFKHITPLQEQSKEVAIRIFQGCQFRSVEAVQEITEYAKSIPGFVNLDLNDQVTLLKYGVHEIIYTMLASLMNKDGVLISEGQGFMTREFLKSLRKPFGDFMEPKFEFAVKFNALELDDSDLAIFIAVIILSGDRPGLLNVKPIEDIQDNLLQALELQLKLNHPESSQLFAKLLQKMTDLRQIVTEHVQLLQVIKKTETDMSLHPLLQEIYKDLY

| Structure (SMILES) | IC50 (HCT-116) | IC50 (TERT-RPE1) | IC50 (MCF7 [1]) | IC50 (MCF7 [2]) | IC50 [3] |
| --- | --- | --- | --- | --- | --- |
| COc1ccc(/C=C2\S/C(=N\c3c(C)cccc3C)N(C)C2=O)cc1 | > 100 µM | > 100 µM | > 100 µM | – | – |
| COc1ccc(/C=C2\S/C(=N\c3ccc(C)c(Cl)c3)N(C)C2=O)cc1 | 14.1 µM | 23 µM | > 100 µM | – | – |
| COc1ccc(/C=C2\S/C(=N\c3ccc(C)cc3)N(C)C2=O)cc1 | > 100 µM | > 100 µM | > 100 µM | – | – |
| COc1ccc(/C=C2/CN(C)/C(=N/c3ccc(Br)cc3)S2)cc1 | 8.9 µM | 61.3 µM | 7.4 µM | – | – |
| COc1ccc(/C=C2\S/C(=N\c3ccc(Cl)cc3)N(C)C2=O)cc1 | 10.4 µM | > 100 µM | 39.3 µM | – | – |
| FC(F)(F)c1cc(/N=C2/NC/C(=C/c3ccccc3)S2)cc(C(F)(F)F)c1 | 16.1 µM | 32.8 µM | 13.5 µM | – | – |
| S=C(Nc1ccccc1)N1C/C(=C/c2ccccc2)S/C1=N\c1ccccc1 | > 100 µM | > 100 µM | > 100 µM | – | – |
| COc1ccc(/C=C2\S/C(=N\c3ccc(Br)cc3)N(C)C2=O)cc1 | 17 µM | > 100 µM | > 100 µM | – | – |
| COc1ccc(/C=C2\S/C(=N\c3ccc(C(C)(C)C)cc3)N(C)C2=O)cc1 | > 100 µM | 46.7 µM | > 100 µM | – | – |
| COc1ccc(/C=C2/CN(C)/C(=N/c3ccc([N+](=O)[O-])cc3)S2)cc1 | 10.2 µM | > 100 µM | 9.8 µM | – | – |
| COc1ccc(/C=C2/CN(C)/C(=N/c3ccc(F)cc3)S2)cc1 | 10 µM | 42.8 µM | 8 µM | – | – |
| COc1ccc(/C=C2/CN(C)/C(=N/c3ccc(C(F)(F)F)cc3)S2)cc1 | 34.3 µM | 72 µM | 24.1 µM | – | – |
| C=CC/N=C1/NCC(=C)S1 | > 100 µM | > 100 µM | > 100 µM | – | – |
| COc1ccc(/C=C2/CN(C)/C(=N/c3ccc(C(C)(C)C)cc3)S2)cc1 | 25.9 µM | 23.5 µM | 28.7 µM | – | – |
| COc1ccc(/C=C2\S/C(=N\c3ccc(F)cc3)N(C)C2=O)cc1 | 13.3 µM | > 100 µM | 66.5 µM | – | – |
| COc1ccc(/C=C2/CN(C)/C(=N/c3ccc(C)cc3)S2)cc1 | 11.1 µM | 65.7 µM | 7.6 µM | – | – |
| COc1ccc(/C=C2\S/C(=N\c3cc(C(F)(F)F)cc(C(F)(F)F)c3)N(C)C2=O)cc1 | > 100 µM | > 100 µM | 77.8 µM | – | – |
| C=C1CN(C)/C(=N/c2ccccc2)S1 | > 100 µM | > 100 µM | > 100 µM | – | – |
| COc1ccc(/C=C2/CN(C)/C(=N/c3ccc(OC)cc3)S2)cc1 | 15.9 µM | 65.9 µM | 8.7 µM | – | – |
| CCOc1cc(/C=C2\S/C(=N/c3ccc(Cl)c(C(=O)O)c3)N(C)C2=O)cc(Cl)c1O | – | – | – | 108 µM | 7.97 µM |
| COc1ccc(/C=C2\S/C(=N\c3ccc(OC)cc3)N(C)C2=O)cc1 | > 100 µM | > 100 µM | > 100 µM | – | – |
| C=CC/N=C1\S/C(=C\c2ccc(OC)cc2)C(=O)N1C | 79.3 µM | > 100 µM | > 100 µM | – | – |
| COc1ccc(/C=C2\S/C(=N\c3ccccc3)N(C)C2=O)cc1 | > 100 µM | > 100 µM | > 100 µM | – | – |
| COc1ccc(/C=C2/CN(C)/C(=N/c3ccc(Cl)cc3)S2)cc1 | 9.8 µM | 39.6 µM | 7.6 µM | – | – |
| C=C1CN/C(=N/c2ccccc2)S1 | > 100 µM | > 100 µM | > 100 µM | – | – |
| O=c1[nH]cc(F)c(=O)[nH]1 [FLUOROURACIL] | 20.4 µM | – | 3.2 µM | – | – |
